This note sets out measurements from the OPERA property sets (Mansouri et al. 2018).

Details in one data set: not given
By boiling point is commonly meant the temperature of boiling at a given pressure. The melting point is the temperature of the solid-liquid transition. Molecule `CCCCCCCCCC#N` came in with a boiling point of 243 °C and a melting point of -17.9 °C. With `CC[C@H](c1ccc(O)cc1)[C@@H](CC)c1ccc(O)cc1`, the melting point was 186 °C. On to `COP(=O)(OC)C(O)C(Cl)(Cl)Cl` (stereo unspecified), for which the log10 Koc (L/kg) was 1.9, the log10 vapour pressure (mmHg) was -5.11, the melting point came to 77 °C and the ready biodegradability entry is “not readily biodegradable”. As to `Clc1ccc(-c2ccc(Cl)c(Cl)c2)c(Cl)c1`, the log10 Henry constant (atm·m³/mol) is -3.92, the log10 Koa is 9.02 and the log10 vapour pressure (mmHg) was -4.33. Regarding `CON=O`, the boiling point was -12 °C and the melting point was -16 °C. As to `FC(F)(Br)Br`, the boiling point was 25 °C, the log10 vapour pressure (mmHg) was determined as 2.91 and the melting point is -110 °C. Take `CC(C)(C)c1ccc(O)cc1`: the ready biodegradability entry is reported as “not readily biodegradable”. `CCOC(=O)C(c1c(O)c2ccccc2oc1=O)c1c(O)c2ccccc2oc1=O` gave a melting point of 154 °C. `Clc1cc(Cl)cc(C2(CC(Cl)(Cl)Cl)CO2)c1` (stereo unspecified) yielded a log10 Koc (L/kg) of 3.75 and a melting point of 42.8 °C.

For `c1ccc(N=C(Nc2ccccc2)Nc2ccccc2)cc1`, the melting point was 146 °C. As for `COC(=O)C(C)(C)O`, the boiling point is 137 °C. `CC(C)COC(=O)CC(C)C` came in with a boiling point of 168 °C and a log10 vapour pressure (mmHg) of 0.266. `CC(C)C(Cl)Cl` displayed a boiling point of 106 °C and a log10 vapour pressure (mmHg) of 1.6.

As for `O=C(OCCO)c1ccccc1O`, the melting point was 37 °C. In the case of `CCc1cc(C(C)(C)C)c(O)c(C(C)(C)C)c1`, the boiling point came out at 272 °C, the melting point was found to be 44 °C and the ready biodegradability result is recorded as “not readily biodegradable”. As to `CC1CCCCCC1`, the boiling point was 134 °C. In the case of `COc1ccc(N)cc1N`, the boiling point stood at 221 °C and the melting point stood at 67.5 °C.

With `CCN(CC)CCN(CC)CC`, the boiling point was determined as 192 °C. Molecule `CC(Cl)CCCCl` (stereo unspecified) showed a boiling point of 162 °C. Consider `CCCCCCCCCCCCS(=O)(=O)O`, for which the ready biodegradability entry was “readily biodegradable”.

Molecule `Cc1noc(NS(=O)(=O)c2ccc(N)cc2)c1C` gave a melting point of 191 °C. Turning to `COC(=O)c1ccccc1CS(=O)(=O)NC(=O)Nc1nc(OC)cc(OC)n1`, the log10 Koc (L/kg) came to 2.5, the log10 vapour pressure (mmHg) was -13.7 and the melting point was determined as 187 °C. Regarding `Clc1ccc(Cl)c(-c2cccc(Cl)c2Cl)c1`, the log10 Henry constant (atm·m³/mol) was -3.85 and the log10 Koa amounted to 8.36. For the molecule `COC(=O)CCC#N`, the boiling point is 211 °C. On the same count and under the same terms, next, `FC(F)(F)c1ccc(C(F)(F)F)cc1`: 116 °C. `O=[N+]([O-])c1ccccc1-c1ccccc1[N+](=O)[O-]` gave a boiling point of 305 °C and a melting point of 126 °C. `O=C(Cl)c1c(F)c(F)c(F)c(F)c1F` had a boiling point of 158 °C.

Molecule `CCCCCCOCC` returned a boiling point of 143 °C. `OCC1=CCN2CC[C@@H](O)[C@@H]12` registered a melting point of 120 °C. Regarding `C=C(C)C(=O)OCCCC`, the boiling point was found to be 160 °C, the log10 vapour pressure (mmHg) amounted to 0.326, the melting point was -75 °C and the ready biodegradability result was “readily biodegradable”. In turn, `CCCCN=C=S` yielded a boiling point of 168 °C. As for `NCCCCCO`, the boiling point came to 222 °C and the melting point stood at 38.5 °C. The molecule `CCNc1nc(NC(C)(C)C)nc(OC)n1` displayed a log10 vapour pressure (mmHg) of -5.7 and a melting point of 124 °C. `CCCCCCCCCCCCCCCCCCCCCCCCCCCCCCC` displayed a boiling point of 458 °C, a log10 biodegradation half-life (days) of 2.44, a log10 vapour pressure (mmHg) of -10.9 and a melting point of 67.9 °C. `CCOC=C(C#N)C#N` yielded a melting point of 66 °C. Consider `CCN(Cc1ccc(Cl)nc1)/C(=C/[N+](=O)[O-])NC`, for which the log10 vapour pressure (mmHg) is -11.1. The molecule `Cc1ccc(OCC(=O)O)cc1` came in with a melting point of 141 °C. For the molecule `O=C(O)c1ccccc1O`, the log10 Koa was 7.44, the log10 vapour pressure (mmHg) was -4.09, the melting point worked out at 158 °C and the ready biodegradability result is recorded as “readily biodegradable”.

With `C=C(C)c1ccc(C(=C)C)cc1`, the melting point is 63.5 °C. On to `Clc1cccc(-c2cccc(Cl)c2Cl)c1Cl`, for which the log10 Henry constant (atm·m³/mol) is -4 and the log10 vapour pressure (mmHg) was -4.13. Consider `CC(=O)c1ccc(OCC(=O)O)cc1`, for which the melting point came out at 176 °C. `Cc1ccccc1NC(N)=S` came in with a melting point of 162 °C. Same read-out and setting: next, `c1ccc2c(c1)ccc1ccc3ccccc3c12`: 68 °C. The molecule `CC1(C(=O)O)CCCCC1` displayed a boiling point of 234 °C and a melting point of 37.5 °C. Turning to `O=[N+]([O-])c1cccc(O)c1`, the log10 Henry constant (atm·m³/mol) was -8.7, the melting point came out at 96.8 °C and the ready biodegradability entry is “readily biodegradable”.

Regarding `C=CCOc1c(Br)cc(C(C)(C)c2cc(Br)c(OCC=C)c(Br)c2)cc1Br`, the melting point was determined as 119 °C. Consider `CCCCOc1ccccc1OCCCC`, for which the ready biodegradability result was “not readily biodegradable”. Molecule `O=C(O)CCCCCCCC(=O)O` registered a log10 vapour pressure (mmHg) of -7.97 and a melting point of 106 °C.

Still in this data set, the particulars now being: fish.
Take `CCOP(=S)(OCC)Oc1cc(-c2ccccc2)on1`: the log10 BCF is 2.61 and the log10 biotransformation half-life (days) worked out at 1.05.

Molecule `COP(=S)(OC)Oc1ccc(SC)c(C)c1` returned a log10 BCF of 2.52 and a log10 biotransformation half-life (days) of -0.36.

Take `C[Si]1(C)O[Si](C)(C)O[Si](C)(C)O[Si](C)(C)O[Si](C)(C)O1`: the log10 biotransformation half-life (days) was found to be 2.74. `Brc1cccc(Br)c1` registered a log10 BCF of 2.82 and a log10 biotransformation half-life (days) of 1.16.

Turning to `Clc1ccc(-c2ccc(Cl)c(Cl)c2)c(Cl)c1`, the log10 biotransformation half-life (days) is 2.07. `CC(C)(C)c1ccc(O)cc1`: the log10 BCF is 1.83 and the log10 biotransformation half-life (days) was -0.87. For `CCc1cc(C(C)(C)C)c(O)c(C(C)(C)C)c1`, the log10 BCF stood at 3.46 and the log10 biotransformation half-life (days) is 0.86. The like results for `Clc1ccc(Cl)c(-c2cccc(Cl)c2Cl)c1` were, in that order, 4.84 and 2.33. `Clc1cccc(-c2cccc(Cl)c2Cl)c1Cl` displayed a log10 BCF of 4.23 and a log10 biotransformation half-life (days) of 2.

For `O=[N+]([O-])c1cccc(O)c1`, the log10 BCF amounted to 1.4 and the log10 biotransformation half-life (days) was -0.49.
